Assay results from patent US20070010671A1, “Novel quinazoline derivatives and methods of treatment related to the use thereof” (priority 2003, published 2007).

Target: MCH receptor (Homo sapiens, UniProt Q99705)
Assay: High throughput functional screening FLIPR/FDSS6000: inhibition of MCH-evoked intracellular Ca2+ changes
Type: cell-based
Settings: class by percent of control at 10^-7 M or by IC50; read-out: class
In short: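 In a kinetic calcium-flux format, compounds were tested at various concentrations against 50 nM MCH. Fluo4-loaded cells expressing a constitutively active, non-endogenous receptor were imaged at 488/530 nm for 290 s after agonist addition.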

SMILES	IC50 [nM]
Cc1ccc(NC(=O)N[C@H]2CC[C@@H](Nc3nc(N(C)C)c4ccccc4n3)CC2)cc1Cl [compound 64]	> 200
CC(NC(=O)NC1CCC(Nc2nc(N(C)C)c3ccccc3n2)CC1)c1ccccc1 (centres unmarked) [compound 66, 1-[4-(4-Dimethylamino-quinazolin-2-ylamino)-cyclohexyl]-3-(1-phenyl-ethyl)-urea]	< 50
CC(NC(=O)NC1CCC(Nc2nc(N(C)C)c3ccccc3n2)CC1)c1cccc2ccccc12 (centres unmarked) [compound 67, 1-[4-(4-Dimethylamino-quinazolin-2-ylamino)-cyclohexyl]-3-(1-napthalen-1-yl-ethyl)-urea]	50 to 200
CC(C)c1cccc(C(C)C)c1NC(=O)N[C@H]1CC[C@@H](Nc2nc(N(C)C)c3ccccc3n2)CC1 [compound 68]	> 200
CN(C)c1nc(N[C@H]2CC[C@@H](NC(=O)Nc3ccccc3OC(F)F)CC2)nc2ccccc12 [compound 69]	> 200
COC(=O)c1ccccc1NC(=O)N[C@H]1CC[C@@H](Nc2nc(N(C)C)c3ccccc3n2)CC1 [compound 70, metyl 2-({[4(cis-4-{[-(dimethylamino)quinazolin-2-yl]amino}cyclohexyl)amino]carbonyl}amino)benzoate]	> 200
CN(C)c1nc(N[C@H]2CC[C@@H](NC(=O)Nc3c(Cl)c(Cl)cc(Cl)c3Cl)CC2)nc2ccccc12 [compound 72, N-(cis-4-{[4-(dimethylamino)quinazolin-2-yl]amino}cyclohexyl)-N′-(2,3,5,6-tetrachlorophenyl)urea]	< 50
CN(C)c1nc(N[C@H]2CC[C@@H](NC(=O)Nc3cc(Cl)c(Cl)cc3Cl)CC2)nc2ccccc12 [compound 74]	> 200
CN(C)c1nc(N[C@H]2CC[C@@H](NC(=O)Nc3c(Br)cc(Br)cc3Br)CC2)nc2ccccc12 [compound 75, N-(cis-4-{[4-(dimethylamino)quinazolin-2-yl]amino}cyclohexyl)-N′-(2,4,6-tribromophenyl)urea]	< 50
CN(C)c1nc(N[C@H]2CC[C@@H](NC(=O)Nc3c(F)cc(Br)cc3Br)CC2)nc2ccccc12 [compound 76, N-(2,4-dibromo-6-fluorophenyl)-N′-(cis-4-{[4-(dimethylamino)quinazolin-2-yl]amino}cyclohexyl)urea]	< 50
CN(C)c1nc(N[C@H]2CC[C@@H](NC(=O)NCc3ccc(Cl)cc3Cl)CC2)nc2ccccc12 [compound 78, N-(2,4-dichlorobenzyl)-N′-(cis-4-{[4-(dimethylamino)quinazolin-2-yl]amino}cyclohexyl)urea]	< 50
Cc1ccc(NC(=O)N[C@H]2CC[C@@H](Nc3nc(N(C)C)c4ccccc4n3)CC2)c(C)c1 [compound 80]	> 200
COc1ccc(OC)c(NC(=O)N[C@H]2CC[C@@H](Nc3nc(N(C)C)c4ccccc4n3)CC2)c1 [compound 81]	50 to 200
Cc1ccc(C)c(NC(=O)N[C@H]2CC[C@@H](Nc3nc(N(C)C)c4ccccc4n3)CC2)c1 [compound 82]	> 200
CN(C)c1nc(N[C@H]2CC[C@@H](NC(=O)Nc3c(Br)cc(F)cc3Br)CC2)nc2ccccc12 [compound 83]	> 200
CN(C)c1nc(N[C@H]2CC[C@@H](NC(=O)Nc3c(Cl)cccc3Cl)CC2)nc2ccccc12 [compound 84]	> 200
CCc1cccc(CC)c1NC(=O)N[C@H]1CC[C@@H](Nc2nc(N(C)C)c3ccccc3n2)CC1 [compound 85, N-(2,6-diethylphenyl)-N′-(cis-4-{[4-(dimethylamino)quinazolin-2-yl]amino}cyclohexyl)urea]	< 50
CN(C)c1nc(N[C@H]2CC[C@@H](NC(=O)Nc3ccccc3Cc3ccccc3)CC2)nc2ccccc12 [compound 86]	> 200
CN(C)c1nc(N[C@H]2CC[C@@H](NC(=O)Nc3cc([N+](=O)[O-])ccc3Cl)CC2)nc2ccccc12 [compound 88]	50 to 200
Cc1cccc(Cl)c1NC(=O)N[C@H]1CC[C@@H](Nc2nc(N(C)C)c3ccccc3n2)CC1 [compound 90]	< 50
CN(C)c1nc(N[C@H]2CC[C@@H](NC(=O)NCc3ccccc3Cl)CC2)nc2ccccc12 [compound 91, N-(2-chlorobenzyl)-N′-(cis-4-{[4-(dimethylamino)quinazolin-2-yl]amino}cyclohexyl)urea]	< 50
CCOc1ccccc1NC(=O)N[C@H]1CC[C@@H](Nc2nc(N(C)C)c3ccccc3n2)CC1 [compound 93, N-(cis-4-{[4-(dimethylamino)quinazolin-2-yl]amino}cyclohexyl)-N′-(2-ethoxyphenyl)urea]	< 50
CN(C)c1nc(N[C@H]2CC[C@@H](NC(=O)Nc3cccc(C(F)(F)F)c3F)CC2)nc2ccccc12 [compound 96]	> 200
CN(C)c1nc(N[C@H]2CC[C@@H](NC(=O)Nc3cc(C(F)(F)F)ccc3F)CC2)nc2ccccc12 [compound 97, N-(cis-4-{[4-(dimethylamino)quinazolin-2-yl]amino}cyclohexyl)-N′-[2-fluro-5-(trifluoromethyl)phenyl]urea]	> 200
CN(C)c1nc(N[C@H]2CC[C@@H](NC(=O)Nc3cc([N+](=O)[O-])ccc3F)CC2)nc2ccccc12 [compound 99]	> 200
CN(C)c1nc(N[C@H]2CC[C@@H](NC(=O)NCc3ccccc3F)CC2)nc2ccccc12 [compound 100, N-(cis-4-{[4-(dimethylamino)quinazolin-2-yl]amino}cyclohexyl)-N′-(2-fluorobenzyl)urea]	< 50
CN(C)c1nc(N[C@H]2CC[C@@H](NC(=O)Nc3ccccc3I)CC2)nc2ccccc12 [compound 101, N-(cis-4-{[4-(dimethylamino)quinazolin-2-yl]amino}cyclohexyl)-N′-(2-iodophenyl)urea]	< 50
COc1ccc(C)cc1NC(=O)N[C@H]1CC[C@@H](Nc2nc(N(C)C)c3ccccc3n2)CC1 [compound 105, N-(cis-4-{[4-(dimethylamino)quinazolin-2-yl]amino}cyclohexyl)-N′-(2-methoxy-5-methylphenyl)urea]	50 to 200

Second part, the compound after the results:

IC50 [nM]	SMILES
< 50	CC(NC(=O)N[C@H]1CC[C@@H](Nc2nc(N(C)C)c3ccccc3n2)CC1)c1cccc2ccccc12 (stereo partly drawn) [compound 61, N-(cis-4-{[4-(dimethylamino)quinazolin-2-yl]amino}cyclohexyl)-N′-[1-(-napthyl)ethyl]urea]
< 50	CN(C)c1nc(N[C@H]2CC[C@@H](NC(=O)Nc3c(Cl)cc(Cl)cc3Cl)CC2)nc2ccccc12 [compound 63, N-(cis-4-{[4-(dimethylamino)quinazolin-2-yl]amino}cyclohexyl)-N′-(2,4,6-trichlorophenyl)urea]
50 to 200	CSc1ccccc1NC(=O)N[C@H]1CC[C@@H](Nc2nc(N(C)C)c3ccccc3n2)CC1 [compound 71]
50 to 200	Cc1ccc([N+](=O)[O-])c(NC(=O)N[C@H]2CC[C@@H](Nc3nc(N(C)C)c4ccccc4n3)CC2)c1C [compound 73, N-(cis-4-{[4-(dimethylamino)quinazolin-2-yl]amino}cyclohexyl)-N′-(2,3-dimethyl-6-nitrophenyl)urea]
< 50	CN(C)c1nc(N[C@H]2CC[C@@H](NC(=O)Nc3ccc(Br)cc3Br)CC2)nc2ccccc12 [compound 77, N-(2,4-dibromophenyl)-N′-(cis-4-{[4-(dimethylamino)quinazolin-2-yl]amino}cyclohexyl)urea]
< 50	COc1ccc(NC(=O)N[C@H]2CC[C@@H](Nc3nc(N(C)C)c4ccccc4n3)CC2)c(OC)c1 [compound 79]
> 200	Cc1ccc(Cl)c(NC(=O)N[C@H]2CC[C@@H](Nc3nc(N(C)C)c4ccccc4n3)CC2)c1 [compound 87]
< 50	CN(C)c1nc(N[C@H]2CC[C@@H](NC(=O)Nc3c(Cl)cccc3C(F)(F)F)CC2)nc2ccccc12 [compound 89, N-[2-chloro-6-(trifluoromethyl)phenyl]-N′-(cis-4-{[4-(dimethylamino)quinazolin-2-yl]amino}cyclohexyl)urea]
< 50	CCc1cccc(C(C)C)c1NC(=O)N[C@H]1CC[C@@H](Nc2nc(N(C)C)c3ccccc3n2)CC1 [compound 94, N-(cis-4-{[4-(dimethylamino)quinazolin-2-yl]amino}cyclohexyl)-N′-(2-ethyl-6-isopropylphenyl)urea]
< 50	CCc1ccccc1NC(=O)N[C@H]1CC[C@@H](Nc2nc(N(C)C)c3ccccc3n2)CC1 [compound 95, N-(cis-4-{[4-(dimethylamino)quinazolin-2-yl]amino}cyclohexyl)-N′-(2-ethylphenyl)urea]
> 200	Cc1ccc(F)c(NC(=O)N[C@H]2CC[C@@H](Nc3nc(N(C)C)c4ccccc4n3)CC2)c1 [compound 98, N-(cis-4-{[4-(dimethylamino)quinazolin-2-yl]amino}cyclohexyl)-N′-(2-fluro-5-methylphenyl)urea]
< 50	Cc1cccc(C(C)C)c1NC(=O)N[C@H]1CC[C@@H](Nc2nc(N(C)C)c3ccccc3n2)CC1 [compound 102, N-(cis-4-{[4-(dimethylamino)quinazolin-2-yl]amino}cyclohexyl)-N′-(2-isopropyl-6-methylphenyl)urea]
< 50	CC(C)c1ccccc1NC(=O)N[C@H]1CC[C@@H](Nc2nc(N(C)C)c3ccccc3n2)CC1 [compound 103, N-(cis-4-{[4-(dimethylamino)quinazolin-2-yl]amino}cyclohexyl)-N′-(2-isopropylphenyl)urea]
50 to 200	COc1cc([N+](=O)[O-])ccc1NC(=O)N[C@H]1CC[C@@H](Nc2nc(N(C)C)c3ccccc3n2)CC1 [compound 104, N-(cis-4-{[4-(dimethylamino)quinazolin-2-yl]amino}cyclohexyl)-N′-(2-methoxy-4-nitrophenyl)urea]
> 200	COc1ccc([N+](=O)[O-])cc1NC(=O)N[C@H]1CC[C@@H](Nc2nc(N(C)C)c3ccccc3n2)CC1 [compound 106]
< 50	Cc1c(NC(=O)N[C@H]2CC[C@@H](Nc3nc(N(C)C)c4ccccc4n3)CC2)cccc1[N+](=O)[O-] [compound 107, N-(cis-4-{[4-(dimethylamino)quinazolin-2-yl]amino}cyclohexyl)-N′-(2-methyl-3-nitrophenyl)urea]
